The source of these data is patent US20070197610A1, “Benzisoxazoles” (Janssen Pharmaceutica N.V., priority 2004, published 2007).

A word on the melting point: it is the temperature of the solid-liquid transition.

Structures are written as SMILES.

The target of series [1] is T1, D-amino acid oxidase (DAAO; EC 1.4.3.3) (Sus scrofa, UniProt P00371).
T1 construct: purchased Sigma
Description: In vitro inhibition of DAAO using the keto acid method. The series is classed as biochemical. The settings on record: DAAO 20 μg/ml, D-Alanine 15 mM, 10 min at room temperature, pH 8.3, absorbance at 450 nm; read-out: keto acid method pIC50 (converted). Here is the method:
(§1) D-amino acid oxidase (DAAO; EC 1.4.3.3) catalyzes the oxidation of D-stereo isomers of amino acids.
Two in vitro methods were developed to measure the catalytic activity of DAAO: • 1. The peroxide method: measures the amount of peroxide produced, using an auxiliary enzyme horse radish peroxidase • 2. […]
DAAO (20 μg/ml) is incubated for 10 min at room temperature with the substrate D-Alanine (15 mM) in 0.19 mM pyrophosphatebuffer pH 8.3 containing FAD (11 μg/ml), and bovine liver catalase (EC 1.11.1.6) (4.3 mg/ml) in a total volume of 50 μl. Compounds were added in a 0.5 μl volume to a final DMSO concentration of 1%. The reaction is stopped by adding 25 μl 1 mM […] dinitrophenylhydrazine in 1N HCl, After a second 10 min incubation at room temperature, 175 μl 0.6 N NaOH is added and the formed hydrazone is detected by measuring the absorbance at 450 nm. All products were purchased from Sigma.

Series [2] deals with T1, D-amino acid oxidase (DAAO; EC 1.4.3.3). Put plainly: In vitro inhibition of DAAO using the peroxide method. The settings on record: DAAO 2.6 μg/ml, D-Alanine 7.5 mM, 60 minutes at room temperature, absorbance at 492 nm; read-out: H2O2 method pIC50 (converted). The series is classed as biochemical. How it is done:
as §1
Two in vitro methods were developed to measure the catalytic activity of DAAO: • 1. The peroxide method: measures the amount of peroxide produced, using an auxiliary enzyme horse radish peroxidase • 2. The keto acid method: measures the ax keto acid formed
The general reaction to determine the amount of peroxide produced by catalytic action of DAAO can be described as: [drawing 36]
DAAO (2.6 μg/ml) is incubated for 60 minutes at room temperature with the substrate D-Alanine (7.5 mM) in 0.019 M sodiumpyrophosphate buffer containing FAD(5.5 μg/ml), HRP (200 μg/ml), DHBS (1667 μg/ml) and 4-aminoantipyrine(500 μg/ml) in a total volume of 50 μl. Compounds were added in a 0.5 μl volume to a final DMSO concentration of 1%. The reaction was terminated by addition of 30 μl of 0.5M phosphate buffer pH 5.0. The quinone-imine dye was detected by measuring the absorbance at 492 nm. All products were purchased from Sigma.

T1 sequence (P00371 whole entry): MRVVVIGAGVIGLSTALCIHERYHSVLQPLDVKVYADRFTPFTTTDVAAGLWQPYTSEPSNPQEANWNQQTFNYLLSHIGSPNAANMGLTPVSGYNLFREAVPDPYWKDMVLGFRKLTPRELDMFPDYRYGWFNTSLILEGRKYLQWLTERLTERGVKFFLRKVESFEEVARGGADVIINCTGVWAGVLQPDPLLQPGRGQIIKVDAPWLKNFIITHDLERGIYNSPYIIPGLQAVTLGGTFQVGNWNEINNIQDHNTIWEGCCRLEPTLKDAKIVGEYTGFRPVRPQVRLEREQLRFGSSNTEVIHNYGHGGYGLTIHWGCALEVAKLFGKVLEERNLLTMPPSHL

On to `Cc1onc(-c2c(Cl)cccc2Cl)c1NC(=O)n1oc2ccc(Cl)cc2c1=O` [Compound 21], for which the results for the IC50 in series [1] and in series [2] were 1000 nM and 631 nM, respectively.
As to `Cc1ccc2on(C(=O)NC(C)C)c(=O)c2c1` [Compound 28], the values for the IC50 in series [1] and in series [2] were 2000 nM and 3980 nM, respectively.
As to `Cc1ccc2onc(OC(=O)c3cc(C)on3)c2c1` [Compound 19], the melting point lay within 126 to 128 °C. Moreover, the IC50 in series [1] was 5010 nM. Further, in series [2], the IC50 was 3980 nM.
For the compound `CNC(=O)n1oc2ccc(Cl)cc2c1=O` [Compound 22], the values for the IC50 in series [1] and in series [2] were 794 nM and 631 nM, respectively.
Regarding `CC(C)(C)NC(=O)n1oc2cc(Cl)ccc2c1=O` [Compound 27], the IC50 in series [1] was 200 nM; in series [2], 50.1 nM.
Regarding `Cc1ccc2on(C(=O)NC(C)(C)C)c(=O)c2c1` [Compound 26], the IC50 in series [1] is 2000 nM; in series [2], 3160 nM.
Taken in the same sequence, the figures for `CC(C)NC(=O)n1oc2ccc(Cl)cc2c1=O` [Compound 23] were 1000 nM and 794 nM.
Turning to `Cc1cc(C(=O)Oc2noc3cc(Cl)ccc23)no1` [Compound 18], the IC50 in series [1] is 126 nM; in series [2], 31.6 nM.
Taken in the same sequence, the figures for `Cc1onc(-c2c(Cl)cccc2Cl)c1C(=O)Oc1noc2ccc(Cl)cc12` [Compound 17] were 1000 nM and 631 nM.
Take `COc1ccc2c(=O)n(C(=O)NC(C)C)oc2c1` [Compound 1]: the melting point was 121 °C.
`COc1ccc2c(O)noc2c1` came in with a melting point of 208 °C.
Regarding `CC(C)NC(=O)n1oc2ccccc2c1=O` [Compound 29], the IC50 in series [1] is 3980 nM.
`O=C(/N=c1/c2ccccc2on1C(=O)c1ccccc1)c1ccccc1` [Compound 10] displayed a melting point of 97 to 100 °C.
Take `CCCNC(=O)n1oc2ccc(Cl)cc2c1=O` [Compound 25]: the IC50 is 794 nM in series [1] and 631 nM in series [2].
